Assay results: publication PMC8362039, “Development of Non‐Hydrolysable Oligosaccharide Activity‐Based Inactivators for Endoglycanases: A Case Study on α‐1,6 Mannanases” (Chemistry (Weinheim an Der Bergstrasse, Germany), 2021)

Legend:
Assay in all cases: intact protein mass spectrometry
Type in all cases: binding
BcGH76 [1] = molecular target: T1, BcGH76 (Niallia circulans, UniProt Q9Z4P9); details: probe:protein 10:1, 25 mM HEPES pH 7, 100 mM NaCl, 293 K, 22 h
T1 construct: gene aman6; recombinant GH76 endo-mannanase; borders and tags not given; R341Q crystallisation variant also used
Excerpt: (§1) intact protein mass spectrometry on BcGH76

BcGH76 [2] = molecular target: T2, BcGH76 (Niallia circulans, UniProt Q9Z4P9, R341Q); details: covalent, probe:protein 10:1, 25 mM HEPES pH 7, 100 mM NaCl, 293 K
T2 construct: gene aman6; recombinant GH76 endo-mannanase; borders and tags not given; R341Q crystallisation variant also used
Excerpt: as §1

BcGH76 [3] = molecular target: T3, BcGH76 (Niallia circulans, UniProt Q9Z4P9, D125N/R341Q); details: covalent, probe:protein 10:1, 25 mM HEPES pH 7, 100 mM NaCl, 293 K
T3 construct: gene aman6; recombinant GH76 endo-mannanase; borders and tags not given; R341Q crystallisation variant also used
Excerpt: as §1

BcGH76 [4] = molecular target: T4, BcGH76 (Niallia circulans, UniProt Q9Z4P9, D125N); details: probe:protein 10:1, 25 mM HEPES pH 7, 100 mM NaCl, 293 K
T4 construct: gene aman6; recombinant GH76 endo-mannanase; borders and tags not given; R341Q crystallisation variant also used
Excerpt: as §1

T1 sequence (Q9Z4P9 entry or part of it): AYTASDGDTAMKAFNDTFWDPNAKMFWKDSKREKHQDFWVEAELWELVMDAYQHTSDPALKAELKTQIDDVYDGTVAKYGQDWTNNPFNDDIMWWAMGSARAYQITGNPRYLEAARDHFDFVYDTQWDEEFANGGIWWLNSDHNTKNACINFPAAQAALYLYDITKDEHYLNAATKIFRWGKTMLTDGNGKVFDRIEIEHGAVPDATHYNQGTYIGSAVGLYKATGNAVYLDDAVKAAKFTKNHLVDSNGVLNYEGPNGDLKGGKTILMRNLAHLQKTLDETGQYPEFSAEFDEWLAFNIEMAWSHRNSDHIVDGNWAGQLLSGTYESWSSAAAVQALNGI
T2 sequence (Q9Z4P9 entry or part of it R341Q): as the sequence (Q9Z4P9 entry or part of it) above, with R307Q counted along it
T4 sequence (Q9Z4P9 entry or part of it D125N): as the sequence (Q9Z4P9 entry or part of it) above, with D91N counted along it
T3 sequence (Q9Z4P9 entry or part of it D125N/R341Q): as the sequence (Q9Z4P9 entry or part of it) above, with D91N, R307Q counted along it

Structure (SMILES)	covalent labelling (BcGH76 [1]) [%]	22 h incubation / 1 (BcGH76 [2]) [%]	16 h incubation / 2 (BcGH76 [2]; 22 h) [%]	22 h incubation / 2 (BcGH76 [3]) [%]	22 h incubation / 2 (BcGH76 [4]; covalent) [%]	percent covalent labelling (BcGH76 [1]) [%]	16 h incubation / 3 (BcGH76 [2]; 22 h) [%]	22 h incubation / 3 (BcGH76 [3]) [%]	covalent labelling of protein (%) (BcGH76 [4]; 22 h)
OC[C@H]1O[C@H](OC[C@@H]2[C@@H](O)[C@H](O)[C@H](O)[C@H]3O[C@@H]23)[C@@H](O)[C@@H](O)[C@@H]1O [compound 1, α‐1,6‐α‐manno‐cyclophellitol disaccharide 1]	30	30	–	–	–	–	–	–	–
OC[C@H]1O[C@H](OC[C@H]2O[C@H](OC[C@@H]3[C@@H](O)[C@H](O)[C@H](O)[C@H]4O[C@@H]34)[C@@H](O)[C@@H](O)[C@@H]2O)[C@@H](O)[C@@H](O)[C@@H]1O [compound 2, trisaccharide 2]	30	–	17	85	85	–	–	–	–
OC[C@H]1O[C@H](OC[C@H]2C[C@H](OC[C@@H]3[C@@H](O)[C@H](O)[C@H](O)[C@H]4O[C@@H]34)[C@@H](O)[C@@H](O)[C@@H]2O)[C@@H](O)[C@@H](O)[C@@H]1O [compound 3, carba‐trisaccharide cyclophellitol 3]	–	–	–	–	–	100	100	45	44
